The values below come from ChEMBL document CHEMBL4321847, “Discovery of 6-(2,4-Dichlorophenyl)-5-[4-[(3S)-1-(3-fluoropropyl)pyrrolidin-3-yl]oxyphenyl]-8,9-dihydro-7H-benzo[7]annulene-2-carboxylic acid (SAR439859), a Potent and Selective Estrogen Receptor Degrader (SERD) for the Treatment of Estrogen-Receptor-Positive Breast Cancer” (J Med Chem, 2020).

Data set [1] in a line: in vitro. The following applies: rat, microsomes.
Description: Metabolic stability in rat microsomes assessed as total metabolism
A short description of a further data set: physchem. The note with it: buffer, pH 7.4.
Data set [2] is described as follows: in vitro. The note with it: mouse, microsomes.
Description: Metabolic stability in mouse microsomes assessed as total metabolism
Data set [3] in a line: in vitro. The following applies: human, microsomes.
Description: Metabolic stability in human liver microsomes assessed as total metabolism
Data set [4] is described as follows: in vivo. The following applies: mouse, iv, 3 mg/kg.
Description: Volume of distribution at steady state in mouse at 3 mg/kg, iv or 10 mg/kg, po
A short description of data set [5]: in vivo. The note with it: rat, iv, 3 mg/kg.
Description: Volume of distribution at steady state in rat at 3 mg/kg, iv or 10 mg/kg, po
A short description of data set [6]: in vivo. The note with it: dog, iv, 3 mg/kg.
Description: Clearance in dog at 3 mg/kg, iv or 10 mg/kg, po
The test system of data set [7] is MCF7. The note with it: Homo sapiens.
Description: Antitumor activity against tamoxifen-sensitive human MCF7 cells xenografted in 17-beta-estradiol pellets implanted nu/nu mouse assessed as reduction in tumor growth at 2.5 to 12.5 mg/kg, po administered bid daily and monitored for biweekly
The nature of data set [8]: in vivo. The following applies: rat, po, 10 mg/kg.
Data set [9] has as its system MCF7. It counts as functional, Homo sapiens. The note with it: at 25 mg/kg.
Description: Antitumor activity against tamoxifen-sensitive human MCF7 cells xenografted in 17-beta-estradiol pellets implanted nu/nu mouse assessed as tumor regression at 25 mg/kg, po administered bid daily and monitored for biweekly
Data set [10] can be described thus: in vivo. The following applies: mouse, po, 10 mg/kg.
Data set [11] is described as follows: in vivo. The following applies: dog, po, 10 mg/kg.
Data set [12] is described as follows: in vivo. The note with it: mouse.
Description: Half life in mouse at 3 mg/kg, iv or 10 mg/kg, po
The nature of data set [13]: in vivo. The note with it: dog.
Description: Half life in dog at 3 mg/kg, iv or 10 mg/kg, po
Data set [14] is described as follows: in vivo. The following applies: mouse, iv, 3 mg/kg. This is another data set of the same source.
Description: Clearance in mouse at 3 mg/kg, iv or 10 mg/kg, po
A short description of data set [15]: in vivo. The following applies: rat, iv, 3 mg/kg. The source holds these as a separate data set.
Description: Clearance in rat at 3 mg/kg, iv or 10 mg/kg, po
Data set [16] is described as follows: in vivo. The following applies: dog, iv, 3 mg/kg. This is another data set of the same source.
Description: Volume of distribution at steady state in dog at 3 mg/kg, iv or 10 mg/kg, po
Data set [17] is described as follows: in vivo. The following applies: rat.
Description: Half life in rat at 3 mg/kg, iv or 10 mg/kg, po

The source made the active and inactive calls. The calls are words filed in the database; no cut-off is given here.
Wherever T/C is given: time not given here.

Description for physchem: Lipophilicity, logD of the compound in phosphate buffer at pH 7.4

Broadly, the logD is lipophilicity at a set pH, counting ionised and neutral species. Higher therefore signals a more lipophilic compound. As for `Oc1ccc2c(c1)CCCC(c1ccc3[nH]ccc3c1)=C2c1ccc(O[C@H]2CCN(CCCF)C2)cc1`, the values for the metabolised in “in vitro [1]”, in “in vitro [2]” and in “in vitro [3]” were 75%, 61% and 39%, respectively. Further, the log distribution coefficient (logD) in the data set “physchem” came out at 3.49.

Turning to `Oc1ccc2c(c1)CCCC(c1ccncc1)=C2c1ccc(O[C@H]2CCN(CCCF)C2)cc1`, the metabolised came to 60% in “in vitro [1]”, 39% in “in vitro [2]” and 70% in “in vitro [3]”. The compound further returned a logD in the data set “physchem” of 2.11.

On to `O=C(O)c1ccc2c(c1)CCCC(c1cccc(F)c1Cl)=C2c1ccc(O[C@H]2CCN(CCCF)C2)cc1`, for which the metabolised amounted to 2% in “in vitro [1]”, 0% in “in vitro [2]” and 28% in “in vitro [3]”. In “physchem”, the logD was determined as 2.59.

Turning to `O=C(O)c1ccc2c(c1)CCCC(c1ccccc1Cl)=C2c1ccc(O[C@H]2CCN(CCCF)C2)cc1`, the metabolised stood at 4% in the data set “in vitro [1]”, 5% in the data set “in vitro [2]” and 0% in “in vitro [3]”. Besides, the logD in the data set “physchem” was 2.63.

For `O=C(O)c1ccc2c(c1)CCCC(c1ccc(SC(F)(F)F)cc1)=C2c1ccc(O[C@H]2CCN(CCCF)C2)cc1`, the metabolised is 4% in the data set “in vitro [1]”, 12% in the data set “in vitro [2]” and 10% in the data set “in vitro [3]”. Moreover, the logD in the data set “physchem” amounted to 3.46.

As to `O=C(O)c1ccc2c(c1)CCCC(c1ccc(Cl)cc1)=C2c1ccc(O[C@H]2CCN(CCCF)C2)cc1`, the results for the metabolised in “in vitro [1]”, in the data set “in vitro [2]” and in “in vitro [3]” were 1%, 15% and 2%, respectively. For the same compound, the log distribution coefficient (logD) in the data set “physchem” is 2.9.

One may read the Vd as the apparent volume that relates the amount in the body to the concentration in plasma or blood. The term clearance denotes the volume of plasma or blood freed of the substance per unit of time. In general, bioavailability refers to the share of a dose that reaches the circulation, judged against a reference dose that is usually intravenous. A higher bioavailability goes with much systemic uptake. Usually half-life stands for how long it takes for the measured level to halve. A high value points to slow decline. With `O=C(O)c1ccc2c(c1)CCCC(c1ccc(Cl)cc1Cl)=C2c1ccc(O[C@H]2CCN(CCCF)C2)cc1` [AMCENESTRANT], the values for the Vd in “in vivo [4]”, in the data set “in vivo [5]” and in “in vivo [16]” were 6.1 L/kg, 0.83 L/kg and 0.5 L/kg, respectively. In addition, the metabolised in the data set “in vitro [1]” was 4%; in “in vitro [2]” it was 13%; in the data set “in vitro [3]”, 12%. Further, the results for the clearance in the data set “in vivo [6]”, in “in vivo [14]” and in the data set “in vivo [15]” were 0.5 mL/min/kg, 32 mL/min/kg and 3.17 mL/min/kg, respectively. The TGI result in the data set on MCF7 [7] is “Active”. The bioavailability in “in vivo [8]” was determined as 76%; in “in vivo [10]” it was 62%; in the data set “in vivo [11]” it was 54%. The T/C in the data set on MCF7 [9] is -28%. Also, the pH-dependent lipophilicity (logD) in “physchem” came to 3.25. The half-life in the data set “in vivo [12]” is 1.98 h; in “in vivo [13]”, 9.8 h; in “in vivo [17]”, 4.13 h.

As for `Oc1ccc2c(c1)CCCC(c1cccnc1)=C2c1ccc(O[C@H]2CCN(CCCF)C2)cc1`, the metabolised is 80% in “in vitro [1]”, 31% in the data set “in vitro [2]” and 70% in the data set “in vitro [3]”. This compound yielded a logD in the data set “physchem” of 2.11.

Turning to `Oc1ccc2c(c1)CCCC(c1ccccc1Cl)=C2c1ccc(O[C@H]2CCN(CCCF)C2)cc1`, the metabolised in the data set “in vitro [1]” came out at 53%; in the data set “in vitro [2]” it was 31%; in “in vitro [3]”, 41%. In “physchem”, this compound showed a logD of 4.11.

For `Oc1ccc2c(c1)C(c1ccc(O[C@H]3CCN(CCCF)C3)cc1)=C(c1ccc(F)cc1Cl)CCC2`, the metabolised in the data set “in vitro [1]” is 80%; in the data set “in vitro [2]” it was 30%; in the data set “in vitro [3]”, 57%.

As for `Oc1ccc2c(c1)CCCC(c1ccc(Cl)cc1Cl)=C2c1ccc(O[C@H]2CCN(CCCF)C2)cc1`, the metabolised in “in vitro [1]” came out at 17%; in the data set “in vitro [2]”, 18%; in the data set “in vitro [3]”, 30%. The compound also returned a logD in “physchem” of 5.27.

In the case of `O=C(O)c1ccc2c(c1)CCCC(c1ccc(OC(F)(F)F)cc1)=C2c1ccc(O[C@H]2CCN(CCCF)C2)cc1`, the metabolised in “in vitro [1]” came out at 2%; in the data set “in vitro [2]”, 10%; in “in vitro [3]”, 20%. The compound further yielded a log distribution coefficient (logD) in the data set “physchem” of 3.43.

In the case of `Oc1ccc(C2=C(c3ccc(O[C@H]4CCN(CCCF)C4)cc3)c3cc(O)ccc3CCC2)cc1`, the metabolised in “in vitro [1]” amounted to 58%; in “in vitro [2]” it was 55%; in the data set “in vitro [3]”, 49%.

In the case of `Oc1ccc(C2=C(c3ccc(O[C@H]4CCN(CCCF)C4)cc3)c3ccc(O)cc3CCC2)cc1`, the figures for the metabolised in the data set “in vitro [1]”, in “in vitro [2]” and in the data set “in vitro [3]” were 48%, 25% and 55%, respectively.

For the compound `Oc1ccc2c(c1)CCCC(c1ccc(F)cc1Cl)=C2c1ccc(O[C@H]2CCN(CCCF)C2)cc1`, the metabolised in “in vitro [1]” stood at 44%; in “in vitro [2]”, 20%; in “in vitro [3]”, 31%. The logD in “physchem” amounted to 4.59.

Take `Oc1ccc2c(c1)CCCC(c1ccc3[nH]ncc3c1)=C2c1ccc(O[C@H]2CCN(CCCF)C2)cc1`: the values for the metabolised in “in vitro [1]”, in “in vitro [2]” and in “in vitro [3]” were 74%, 65% and 72%, respectively. Further, the logD in “physchem” was found to be 2.35.

Turning to `Oc1ccc2c(c1)CCCC(c1ccccc1)=C2c1ccc(O[C@H]2CCN(CCCF)C2)cc1`, the metabolised is 53% in “in vitro [1]”, 44% in the data set “in vitro [2]” and 34% in the data set “in vitro [3]”. The compound also had a logD in the data set “physchem” of 4.

For the compound `Oc1ccc2c(c1)CCCC(c1cccc(Cl)c1F)=C2c1ccc(O[C@H]2CCN(CCCF)C2)cc1`, the metabolised in the data set “in vitro [1]” was determined as 45%; in “in vitro [2]”, 41%; in the data set “in vitro [3]”, 37%. Further, the log distribution coefficient (logD) in “physchem” was determined as 4.32.
